Test results reported in PubChem BioAssay AID330 (DTP/NCI, 2004).
Several values for one entry are separate records, joined by “and”; a condition that tells them apart may be missing. Equal entries are not always repeated. Toxic doses and inconclusive results are not listed. How the source made its calls: active means survival T/C of 150% or more; inactive means T/C below 125% in these data.

System: P388 leukemia ip, CD2F1 mice, survival T/C
Assay: NCI In Vivo Anticancer Drug Screen. Data for tumor model P388 Leukemia (intraperitoneal) in CD2F1 (CDF1) mice
Conditions: endpoint: median survival time, higher = longer survival
Method in brief: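 Mice carrying the transplanted tumor received test compound or vehicle. Survival was recorded in each group, and the value is the treated-group measurement divided by that of the vehicle-treated control group.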

[1] = dose: 50.0 mg/kg/injection, schedule: Q01DX005 (ip), vehicle: saline with Tween-80
[2] = dose: 100.0 mg/kg/injection, schedule: Q01DX005 (ip), vehicle: saline with Tween-80
[3] = dose: 200.0 mg/kg/injection, schedule: Q01DX005 (ip), vehicle: saline with Tween-80
[4] = dose: 50.0 mg/kg/injection, schedule: Q01DX009 (ip), vehicle: Klucel (hydroxypropylcellulose) (HPC)
[5] = dose: 100.0 mg/kg/injection, schedule: Q01DX009 (ip), vehicle: Klucel (hydroxypropylcellulose) (HPC)
[6] = dose: 50.0 mg/kg/injection, schedule: Q01DX009 (ip), vehicle: saline
[7] = dose: 100.0 mg/kg/injection, schedule: Q01DX009 (ip), vehicle: saline
[8] = dose: 200.0 mg/kg/injection, schedule: Q01DX009 (ip), vehicle: saline
[9] = dose: 60.0 mg/kg/injection, schedule: Q01DX005 (ip), vehicle: saline with Tween-80
[10] = dose: 120.0 mg/kg/injection, schedule: Q01DX005 (ip), vehicle: saline with Tween-80
[11] = dose: 50.0 mg/kg/injection, schedule: Q04DX003 (ip), vehicle: saline
[12] = dose: 50.0 mg/kg/injection, schedule: Q01DX009 (ip), vehicle: saline with Tween-80
[13] = dose: 100.0 mg/kg/injection, schedule: Q04DX003 (ip), vehicle: saline
[14] = dose: 200.0 mg/kg/injection, schedule: Q04DX003 (ip), vehicle: saline
[15] = dose: 240.0 mg/kg/injection, schedule: Q01DX005 (ip), vehicle: saline with Tween-80

Measured: T/C

CSC(=S)n1nc(-c2cccs2)c(N=Nc2ccccc2)c1C(F)(F)F
inactive: dose: 7.5 mg/kg/injection, schedule: Q01DX005 (ip), vehicle: saline with Tween-80 102 % of control | dose: 15.0 mg/kg/injection, schedule: Q01DX005 (ip), vehicle: saline with Tween-80 112 % of control | dose: 30.0 mg/kg/injection, schedule: Q01DX005 (ip), vehicle: saline with Tween-80 112 % of control

FC(F)(F)COP(=S)(OCC(F)(F)F)OCC(F)(F)F
inactive: [1] 107 % of control | [2] 108 % of control | [3] 110 % of control

CC1=C(/C=C/C(C)=C/C=C/C(C)=C/CO)C(C)(C)CCC1
inactive: [1] 98 % of control | [2] 94 % of control | dose: 100.0 mg/kg/injection, schedule: Q04DX003 (ip), vehicle: saline with Tween-80 100 % of control | [3] 116 % of control | dose: 200.0 mg/kg/injection, schedule: Q04DX003 (ip), vehicle: saline with Tween-80 100 % of control

CCCCCCCCCCCCNC(=S)C(=S)NCCCCCCCCCCCC
inactive: dose: 25.0 mg/kg/injection, schedule: Q01DX009 (ip), vehicle: Klucel (hydroxypropylcellulose) (HPC) 98 % of control | [4] 95 % of control | [5] 94 % of control

CC(=O)OC1C(C)C2CCC13CC=C(C)CC23 (configuration not stated)
inactive: dose: 50.0 mg/kg/injection, schedule: Q01DX005 (ip), vehicle: Klucel (hydroxypropylcellulose) (HPC) 101 % of control | dose: 100.0 mg/kg/injection, schedule: Q01DX005 (ip), vehicle: Klucel (hydroxypropylcellulose) (HPC) 108 % of control | dose: 200.0 mg/kg/injection, schedule: Q01DX005 (ip), vehicle: Klucel (hydroxypropylcellulose) (HPC) 110 % of control

CCOC(=O)CC1(O)Oc2cc3c(cc2C(c2cc(OC)c(OC)c(OC)c2)C1C(=O)OCC)OCO3 (configuration not stated)
inactive: dose: 60.0 mg/kg/injection, schedule: Q01DX005 (ip), vehicle: Klucel (hydroxypropylcellulose) (HPC) 87 % of control | dose: 120.0 mg/kg/injection, schedule: Q01DX005 (ip), vehicle: Klucel (hydroxypropylcellulose) (HPC) 89 % of control | dose: 240.0 mg/kg/injection, schedule: Q01DX005 (ip), vehicle: Klucel (hydroxypropylcellulose) (HPC) 88 % of control

[Cl][Pd][Cl]
inactive: dose: 3.0 mg/kg/injection, schedule: Q01DX009 (ip), vehicle: saline with Tween-80 95 % of control | dose: 6.0 mg/kg/injection, schedule: Q01DX009 (ip), vehicle: saline with Tween-80 113 % of control | dose: 12.0 mg/kg/injection, schedule: Q01DX009 (ip), vehicle: saline with Tween-80 122 % of control

COCC1OC(OC2OCC3OC4(OCC(O)(C(C)OC)C5OCOC54)OC3C2OC)C(OC)C(O)C1OC1OC(C)C(OC)C(OC2OC(C)C3OC4(CC(O)C(OC5CC(OC6CC(C)([N+](=O)[O-])C(OC)C(C)O6)C(OC(=O)c6c(C)c(Cl)c(O)c(Cl)c6OC)C(C)O5)C(C)O4)OC3(C)C2O)C1O (configuration not stated)
inactive: dose: 12.5 mg/kg/injection, schedule: Q01DX009 (ip), vehicle: saline 118 % of control | dose: 25.0 mg/kg/injection, schedule: Q01DX009 (ip), vehicle: saline 103 % of control | [6] 98 % of control | [7] 105 % of control

CCCCCN(CCNc1cc(OC)cc2cccnc12)C(C)CC (configuration not stated)
inactive: dose: 12.5 mg/kg/injection, schedule: Q01DX005 (ip), vehicle: saline 112 % of control | dose: 25.0 mg/kg/injection, schedule: Q01DX005 (ip), vehicle: saline 103 % of control | dose: 50.0 mg/kg/injection, schedule: Q01DX005 (ip), vehicle: saline 101 % of control and 97 % of control | dose: 100.0 mg/kg/injection, schedule: Q01DX005 (ip), vehicle: saline 100 % of control

O=P(OCC(F)(F)F)(OCC(F)(F)F)c1ccccc1
inactive: [1] 102 % of control | [2] 101 % of control | [3] 96 % of control

CSC(=Nc1ccc(N(C)C)cc1)NC#N
inactive: [4] 106 % of control | [5] 103 % of control | dose: 200.0 mg/kg/injection, schedule: Q01DX009 (ip), vehicle: Klucel (hydroxypropylcellulose) (HPC) 92 % of control

COc1ccc2c(c1)CC/C(=C\C1(Sc3ccccc3)CC1)C2O (configuration not stated)
inactive: [1] 102 % of control | [2] 102 % of control | [3] 98 % of control

O=C1CSCc2nc3ccccc3n21
inactive: dose: 100.0 mg/kg/injection, schedule: Q01DX001 (ip), vehicle: saline 95 % of control | [7] 103 % of control | dose: 200.0 mg/kg/injection, schedule: Q01DX001 (ip), vehicle: saline 104 % of control | [8] 103 % of control | dose: 400.0 mg/kg/injection, schedule: Q01DX001 (ip), vehicle: saline 104 % of control

CCOC(CN1Cc2cc(OC)c(OC)cc2CC1c1ccc(OC)c(OC)c1)OCC (configuration not stated)
inactive: [9] 95 % of control | [10] 92 % of control

COc1ccc(C2=NNC(=O)CC2)cc1OC
inactive: dose: 12.5 mg/kg/injection, schedule: Q04DX003 (ip), vehicle: saline 99 % of control | dose: 25.0 mg/kg/injection, schedule: Q04DX003 (ip), vehicle: saline 101 % of control | [11] 101 % of control

CN1CCC(=NO)CC1
inactive: dose: 60.0 mg/kg/injection, schedule: Q01DX005 (ip), vehicle: saline 95 % of control | dose: 120.0 mg/kg/injection, schedule: Q01DX005 (ip), vehicle: saline 89 % of control | dose: 240.0 mg/kg/injection, schedule: Q01DX005 (ip), vehicle: saline 94 % of control

CC(=O)NN
inactive: [12] 104 % of control | [11] 105 % of control | [13] 100 % of control | [14] 100 % of control

O=CNC(Cc1cccc(N(CCCl)CCCl)c1)C(=O)O (configuration not stated)
inactive: dose: 25.0 mg/kg/injection, schedule: Q01DX009 (ip), vehicle: saline sonified 95 % of control

Nc1nc(N)c2c(n1)NC(=O)CC2c1ccccc1 (configuration not stated)
inactive: [9] 97 % of control | [10] 90 % of control | [15] 90 % of control

CCCCCCCCCCCC[N+](C)(CCS(=O)(=O)[O-])Cc1ccccc1 (configuration not stated)
inactive: [2] 108 % of control

Cn1cnc2cc(NCCO)c([N+](=O)[O-])cc2c1=O
inactive: [13] 105 % of control | [14] 119 % of control | dose: 400.0 mg/kg/injection, schedule: Q04DX003 (ip), vehicle: saline 96 % of control

CCCN1C=C(C(=O)OCC)C(N)=C(C#N)/C1=C\C=C(/C#N)C(=O)OCC
inactive: dose: 6.25 mg/kg/injection, schedule: Q01DX001 (ip), vehicle: Klucel (hydroxypropylcellulose) (HPC) 89 % of control | dose: 12.5 mg/kg/injection, schedule: Q01DX001 (ip), vehicle: Klucel (hydroxypropylcellulose) (HPC) 87 % of control | dose: 25.0 mg/kg/injection, schedule: Q01DX001 (ip), vehicle: Klucel (hydroxypropylcellulose) (HPC) 86 % of control | dose: 50.0 mg/kg/injection, schedule: Q01DX001 (ip), vehicle: Klucel (hydroxypropylcellulose) (HPC) 88 % of control | dose: 100.0 mg/kg/injection, schedule: Q01DX001 (ip), vehicle: Klucel (hydroxypropylcellulose) (HPC) 90 % of control

Cc1ccccc1C1(O)CCCCC1
inactive: [12] 105 % of control | dose: 100.0 mg/kg/injection, schedule: Q01DX009 (ip), vehicle: saline with Tween-80 107 % of control | dose: 200.0 mg/kg/injection, schedule: Q01DX009 (ip), vehicle: saline with Tween-80 101 % of control

C=[CH][Sn](=[O])[CH]=C
inactive: [6] 104 % of control | [7] 105 % of control and 89 % of control | [8] 104 % of control and 88 % of control

C=COC(=O)C(Cc1cc(OC)c(OC)c(OC)c1)NC(=O)OCc1ccccc1 (configuration not stated)
inactive: dose: 100.0 mg/kg/injection, schedule: Q04DX002 (ip), vehicle: saline with Tween-80 102 % of control | dose: 200.0 mg/kg/injection, schedule: Q04DX002 (ip), vehicle: saline with Tween-80 101 % of control | dose: 400.0 mg/kg/injection, schedule: Q04DX002 (ip), vehicle: saline with Tween-80 96 % of control

COC(=O)NCN(Cc1ccccc1)C(=O)CCCCCN
inactive: [9] 104 % of control | [10] 100 % of control | [15] 98 % of control

CC1=CC2OC3CC4OC(=O)/C=C/C=C/C(C(C)O)OCCC5(C)OC5C(=O)OCC2(CC1)C4(C)C31CO1 (configuration not stated)
inactive: dose: 1.25 mg/kg/injection, schedule: Q01DX005 (ip), vehicle: saline + alcohol 101 % of control | dose: 2.5 mg/kg/injection, schedule: Q01DX005 (ip), vehicle: saline + alcohol 118 % of control

Clc1ccc(C=Nc2ccc(N=Cc3ccc(Cl)cc3)cc2)cc1
inactive: dose: 100.0 mg/kg/injection, schedule: Q01DX001 (ip), vehicle: saline with Tween-80 90 % of control | dose: 200.0 mg/kg/injection, schedule: Q01DX001 (ip), vehicle: saline with Tween-80 88 % of control | dose: 400.0 mg/kg/injection, schedule: Q01DX001 (ip), vehicle: saline with Tween-80 87 % of control
